In patent US20110123623A1, “RHAMNOLIPID MECHANISM” (priority 2009, published 2011):

What was measured:
[1] = target: human dopamine D2L (human recombinant) (Homo sapiens, UniProt P14416); experiment: Dopamine D2L receptor binding of [3H]Spiperone; details: 100 μM in 0.5 DMSO
Method: At the concentration of 100 μM Di-rhamnolipid W3CTS in 0.5% DMSO, Di-rhamnolipid W3CTS inhibited 100% dopamine D1 (human recombinant) binding of [^3H] SCH23390. At the same concentration of 100 μM W3CTS in 0.5 DMSO measuring binding of [^3H]Spiperone to human dopamine D2L (human recombinant) was inhibited by 53%.

[2] = system: Swiss-Webster female mice; experiment: TPA/pyr induced acute dermal ear inflammation (Part B); type: in vivo, mouse
Method: Effects of Di-rhamnolipid W3CTS on TPA/pyr induced acute inflammation in the ears of Swiss-Webster female mice.
The aim of this study was two-fold. In Part A the potential of a single topical application of W3CTS to cause acute cutaneous irritation (up to 24 hours) was measured in a mouse ear assay system. […] The aim of Part B was to determine the effects of a single topical administration of W3CTS on acute dermal inflammation induced by TPA/pyr, Part B was designed to differentiate the ability of Di-rhamnolipid W3CTS at concentration 1 mg/ml to prevent, inhibit or reverse induced ear inflammation.
The time of maximal reduction of inflammation was dependent on the time of treatment, with respect to induction. The effect of Di-rhamnolipid W3CTS was moderate (up to 32% decrease in inflammation) but sustained. […] Post treatment reversed established inflammation by 32% at 11 hours. […] It may be possible to increase the anti-inflammatory effect of Di-rhamnolipid W3CTS by use of a different dose formulation, or by repeated treatments.

C. albicans = experiment: Immunorestoration activity: cyclophosphamide immunosuppression and C. albicans challenge; type: in vivo, mouse; details: 100 mg/kg i/p days 1, 3, 5, cyclophosphamide 30 mg/kg p/o days 2, 4, 6
Method: Di-rhamnolipid W3CTS was administered i/p. (100 mg/kg) to groups of ICR derived male mice weighing 22±2 g on days 1, 3, and 5, with the immunosuppressant cyclophosphamide (30 mg/kg p/o.) administered on days 2, 4, and 6. One day after the last immunosuppressant dose, the mice were challenged with a suspension of C. Albicans sufficient to result in 90-100% mortality within 10 days in vehicle treated animals. Survival of 30 percent or more (≧30) of the animals was considered significant and indicated possible immunorestoration activity. Reference agent was lipopolysaccharide 0.3 mg/kg i/p.

[3] = Storage stability of Di-rhamnolipid W3CTS; type: physicochemical; details: kept under Nitrogen in bottles at room temperature, 10 years
Source text: Di-rhamnolipid W3CTS has been isolated from Pseudomonas aeruginosa. Production of >98.5% pure Di-rhamnolipid W3CTS is a very expensive procedure; thus, the goal is to produce the clinically accepted purity of the rhamnolipid that has a long shelf life.

ICR male mice = experiment: Immunosuppression (humoral); type: in vivo, mouse
Source text: Immunostimulation (humoral) in BALB/c male mice and Immunosuppression (humoral)^(2,7) on ICR male mice were negative.

female ICR mice = experiment: Immunostimulation (cellular): oxazolone-induced delayed type hypersensitivity; type: in vivo, mouse; details: oxazolone-induced DTH
Source text: Immunostimulation (cellular): Oxazolone-induced delayed type hypersensitivity of female ICR mice was negative.

patients = experiment: Treatment of patients with seborrheic dermatitis, lichen planus and dermatitis circumscripta unilocularis; type: in vivo, human
Method: Twelve psoriatic hospital bed patients, and one patient with seborrheic dermatitis and psoriasis, one patient with lichen planus and one with dermatitis cicumscripta unilocullaris as an out clinic patient were recruited as study volunteers.
Patients with seborhheic dermatitis, lichen planus and dermatitis unilocularis circumscripta eczematoides were cured.
This condition, confirmed with clinical appearance and histopahological findings, was treated with different standard approaches, (mostly) steroids, but condition worsened with tendency to spread further to the large wound covered by thick crust. Following the treatment with 1% Di-rhamnolipid W3CTS, eucerin ointment was introduced with overnight inclusions during four weeks. […] Patient died by natural course 15 years after treatment had been finished.

female and male mice = experiment: Blood findings after one single i/v dose; type: in vivo, mouse; details: 75 mg/kg single i/v dose
Method: Blood findings in female and male mice treated i/v with one single dose of 75 mg/kg of Di-rhamnolipid W3CTS
Monocytes were increased in treated mice up to 100% after 4th day and 29th

[4] = Neonatal human fibroblast cell culture (proliferation, viability, apoptosis); type: cell-based; details: human, neonatal human fibroblasts; 100 μg/ml; presence of serum; read-out: inhibition of viability of fibroblasts
Method: (§1) At the same concentration of 100 μg/ml W3CTS increased apoptosis by 72%.

[5] = system: neonatal human fibroblasts; experiment: as above; type: cell-based
Method: as §1

[6] = Micronucleus test in-vivo
[7] = system: chronic decubitus ulcer in humans; experiment: Treatment of chronic decubitus ulcer; type: in vivo, human; details: topical 0.1% eucerin ointment; single case
Source text: Treatment of Chronic Decubitus Ulcer with Di-Rhamnolipid W3CTS

Sequence of human dopamine D2L (human recombinant) (P14416 whole entry): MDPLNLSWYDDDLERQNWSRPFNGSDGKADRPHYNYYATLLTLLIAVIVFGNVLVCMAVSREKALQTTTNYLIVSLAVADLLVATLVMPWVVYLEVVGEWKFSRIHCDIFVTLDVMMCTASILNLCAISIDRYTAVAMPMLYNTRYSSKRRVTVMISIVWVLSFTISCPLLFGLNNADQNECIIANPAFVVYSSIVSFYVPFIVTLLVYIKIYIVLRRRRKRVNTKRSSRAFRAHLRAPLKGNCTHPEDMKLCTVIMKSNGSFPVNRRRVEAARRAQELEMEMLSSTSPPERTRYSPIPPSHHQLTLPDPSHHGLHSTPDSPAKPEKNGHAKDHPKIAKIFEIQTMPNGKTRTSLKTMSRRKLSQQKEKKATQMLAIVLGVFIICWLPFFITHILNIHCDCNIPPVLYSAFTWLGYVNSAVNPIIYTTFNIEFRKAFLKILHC

**Q.** Which results are given for CCCCCCCC(CC(=O)O)OC(=O)CC(CCCCCCC)OC1OC(C)C(O)C(O)C1OC1OC(C)C(O)C(O)C1O (stereo not shown) [Di-rhamnolipid W3CTS]?
**A.** inhibition at 100 µM [1]: 53%; decrease in inflammation (overall) ([2]; 1 mg/ml topical, maximal effect): up to 32%; topical anti-inflammatory efficacy ([2]; 1 mg/ml, 1.0% w/v, single topical administration, 24 hours time-course): effective as a topical therapeutic anti-inflammatory agent; inhibition of inflammation, concurrent treatment ([2]; at 6 hours): about 32%; reversal of established inflammation, post treatment ([2]; at 11 hours, given 2 hours after induction): 32%; protective effect, pretreatment ([2]; given one hour prior to induced inflammation): short duration as a protective agent; immunorestoration activity (survival of 30 percent or more considered significant) (C. albicans): possible very significant immunorestoration activity; change of structure on storage [3]: did not change its structure during 10 years; Immunosuppression (humoral) (ICR male mice): negative; Immunostimulation (cellular) (female ICR mice): negative; outcome in seborhheic dermatitis, lichen planus and dermatitis unilocularis circumscripta eczematoides (patients; 1.0% eucerin ointment): cured; skin over the wound (patients; after one year): looking normal; wound healing in dermatitis circumscripta unilocularis (patients; person, 1% eucerin ointment, overnight inclusions during four weeks): The wound started to heal; increase of monocytes (female and male mice; after 4th day and 29th): up to 100%; increase of neutrophils in blood (female and male mice; after 29 days): 43.61%; decrease of lymphocytes (female and male mice; fourth day): 24.15%; increase of neutrophils in blood (female and male mice; fourth day): 51.77%; decrease of lymphocytes (female and male mice; twenty nine days): 24.60%; Ames test (Ames test): negative; cytotoxicity at 100 μg/ml [4]: 28%; increase of apoptosis of fibroblasts ([5]; 100 μg/ml, presence of serum): 72%; cell proliferation and viability, fibroblasts ([5]; 200 μg/ml and 500 μg/ml, causing necrosis): fully inhibited cell proliferation and viability; inhibition at 100 µg/mL ([5]; Homo sapiens, Fibroblast, 100 μg/ml, presence of serum): 46%; micronucleus test [6]: negative; healing of chronic decubitus ulcer [7]: profound beneficial effect on the healing
